Assay [1] addresses T1, Polyunsaturated fatty acid lipoxygenase ALOX15 (Oryctolagus cuniculus, UniProt P12530).
T1 sequence (P12530 whole entry): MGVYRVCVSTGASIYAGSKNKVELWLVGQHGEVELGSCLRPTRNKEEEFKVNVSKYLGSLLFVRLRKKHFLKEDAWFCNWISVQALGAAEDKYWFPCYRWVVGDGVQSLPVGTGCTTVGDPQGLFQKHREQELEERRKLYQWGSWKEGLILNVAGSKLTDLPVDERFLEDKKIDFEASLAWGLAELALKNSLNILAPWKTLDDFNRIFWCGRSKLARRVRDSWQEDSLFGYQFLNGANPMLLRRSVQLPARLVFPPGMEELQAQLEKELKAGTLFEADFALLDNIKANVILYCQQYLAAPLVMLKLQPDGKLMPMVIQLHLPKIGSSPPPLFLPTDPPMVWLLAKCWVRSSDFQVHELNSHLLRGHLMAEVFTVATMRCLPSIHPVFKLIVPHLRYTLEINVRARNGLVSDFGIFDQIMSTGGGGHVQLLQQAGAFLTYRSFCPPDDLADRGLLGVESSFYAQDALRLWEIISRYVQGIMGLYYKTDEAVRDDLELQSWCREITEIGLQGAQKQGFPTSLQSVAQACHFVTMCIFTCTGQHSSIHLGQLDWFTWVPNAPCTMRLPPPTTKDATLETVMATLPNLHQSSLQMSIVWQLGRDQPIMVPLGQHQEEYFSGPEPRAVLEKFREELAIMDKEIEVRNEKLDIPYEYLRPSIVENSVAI
Description: biochemical. The assay is classed as tissue-based, Reticulocytes. Particulars: reticulocytes.

Assay [2] has as its target Mitogen-activated protein kinase 14 (Homo sapiens, UniProt Q16539). Further details: species or system Escherichia coli.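 Further: inhibition of p38alpha enzyme activity in a biochemical kinase assay, with myelin basic protein serving as substrate; in other assays of this panel Not Active means under 50% inhibition at 10 µM.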
In the next assay the target is Adenosine receptor A2a (Homo sapiens, UniProt P29274). The experiment in a line: DRUGMATRIX: Adenosine A2A radioligand binding (ligand: […]). The assay is classed as cell membranes, HEK293, Membrane. The settings on record: hek293; Not Active = under 50% inhibition at 10 µM.
Chain of Adenosine receptor A2a (P29274 whole entry): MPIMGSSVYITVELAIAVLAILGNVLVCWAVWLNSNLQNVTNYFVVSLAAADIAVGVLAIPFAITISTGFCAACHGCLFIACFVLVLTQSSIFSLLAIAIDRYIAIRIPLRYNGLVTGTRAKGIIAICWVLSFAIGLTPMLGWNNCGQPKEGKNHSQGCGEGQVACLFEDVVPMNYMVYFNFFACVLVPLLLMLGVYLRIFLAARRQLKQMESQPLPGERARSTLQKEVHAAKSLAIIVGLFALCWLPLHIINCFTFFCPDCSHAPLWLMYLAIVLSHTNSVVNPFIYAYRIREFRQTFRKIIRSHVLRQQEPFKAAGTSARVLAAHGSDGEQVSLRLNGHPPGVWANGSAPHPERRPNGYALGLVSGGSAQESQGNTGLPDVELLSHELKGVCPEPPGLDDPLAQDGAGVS
A further assay deals with Substance-P receptor (Homo sapiens, UniProt P25103). The assay is classed as cell membranes, Membrane. Particulars: cho.
Chain of Substance-P receptor (P25103 whole entry): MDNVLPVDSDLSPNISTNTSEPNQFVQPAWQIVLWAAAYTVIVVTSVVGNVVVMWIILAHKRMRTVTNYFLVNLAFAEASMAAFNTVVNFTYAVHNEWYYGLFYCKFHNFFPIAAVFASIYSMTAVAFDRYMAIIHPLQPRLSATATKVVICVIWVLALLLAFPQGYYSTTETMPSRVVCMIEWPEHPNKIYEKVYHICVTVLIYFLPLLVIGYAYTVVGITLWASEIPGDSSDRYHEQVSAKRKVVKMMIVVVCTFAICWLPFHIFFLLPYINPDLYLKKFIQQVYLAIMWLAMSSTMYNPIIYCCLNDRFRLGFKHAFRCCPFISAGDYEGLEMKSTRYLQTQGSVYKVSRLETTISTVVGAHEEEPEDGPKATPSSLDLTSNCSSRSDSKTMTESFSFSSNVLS
The next assay has as its target T2, D(4) dopamine receptor (Homo sapiens, UniProt P21917).
T2 sequence (P21917 whole entry): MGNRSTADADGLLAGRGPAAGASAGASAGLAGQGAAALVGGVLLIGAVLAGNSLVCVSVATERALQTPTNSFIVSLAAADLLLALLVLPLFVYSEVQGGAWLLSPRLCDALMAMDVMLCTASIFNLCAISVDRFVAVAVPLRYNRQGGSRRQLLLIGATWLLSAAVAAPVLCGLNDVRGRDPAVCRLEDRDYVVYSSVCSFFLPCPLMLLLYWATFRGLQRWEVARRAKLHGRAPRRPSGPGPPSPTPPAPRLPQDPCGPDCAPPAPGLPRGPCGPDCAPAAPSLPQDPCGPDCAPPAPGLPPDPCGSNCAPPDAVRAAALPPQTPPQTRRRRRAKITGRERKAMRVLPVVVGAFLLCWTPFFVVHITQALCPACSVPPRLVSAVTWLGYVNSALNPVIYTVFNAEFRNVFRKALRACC
The experiment in a line: DRUGMATRIX: Dopamine D4.2 radioligand binding (ligand: [3H] Spiperone). The format is cell membranes, CHO-K1, Membrane. Particulars: cho-k1; Not Active = under 50% inhibition at 10 µM.

Chain of Mitogen-activated protein kinase 14 (Q16539 whole entry): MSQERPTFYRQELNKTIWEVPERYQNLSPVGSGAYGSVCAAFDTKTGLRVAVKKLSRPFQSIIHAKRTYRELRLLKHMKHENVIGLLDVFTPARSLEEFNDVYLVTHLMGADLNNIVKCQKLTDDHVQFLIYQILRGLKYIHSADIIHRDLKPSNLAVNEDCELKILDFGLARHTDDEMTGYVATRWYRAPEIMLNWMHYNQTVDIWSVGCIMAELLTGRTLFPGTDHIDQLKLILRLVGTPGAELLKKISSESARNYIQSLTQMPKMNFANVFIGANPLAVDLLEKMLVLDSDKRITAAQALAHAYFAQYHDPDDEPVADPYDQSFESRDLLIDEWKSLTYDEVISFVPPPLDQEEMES

Take `CC(C)(C)NC[C@H](O)COc1nsnc1N1CCOCC1` [TIMOLOL]: the IC50 entry (in assay [1]; in assay [2]; at Adenosine receptor A2a; on Substance-P receptor; at D(4) dopamine receptor) was “Not Active” throughout.
As for `CCS(=O)(=O)CCn1c([N+](=O)[O-])cnc1C` [TINIDAZOLE], the IC50 entry (in assay [1]; in assay [2]; on Adenosine receptor A2a; on Substance-P receptor; at D(4) dopamine receptor) was “Not Active” each time.
As to `C[C@@H]1C[C@H]2[C@@H]3CCC4=CC(=O)C=C[C@]4(C)C3=CC[C@]2(C)[C@H]1C(=O)CN1CCN(c2cc(N3CCCC3)nc(N3CCCC3)n2)CC1` [TIRILAZAD], the 50% inhibitory concentration (IC50) result is “Not Active” in assay [1]; 7.41 µM in assay [2] (read-out: IC50); “Not Active” on Adenosine receptor A2a; “Not Active” at Substance-P receptor; “Not Active” on D(4) dopamine receptor.
As to `NC[C@H]1O[C@H](O[C@H]2[C@H](O)[C@@H](O[C@H]3O[C@H](CO)[C@@H](O)[C@H](N)[C@H]3O)[C@H](N)C[C@@H]2N)[C@H](N)C[C@@H]1O` [TOBRAMYCIN], the IC50 result (in assay [1]; in assay [2]; on Adenosine receptor A2a; on Substance-P receptor; on D(4) dopamine receptor) was “Not Active” each time.
Consider `O=c1n(CCCN2CCN(c3cccc(Cl)c3)CC2)nc2ccccn12` [TRAZODONE], for which the IC50 entry (in assay [1]; in assay [2]; on Adenosine receptor A2a; on Substance-P receptor; at D(4) dopamine receptor) was “Not Active” throughout.
With `O=C(O)C(Cl)(Cl)Cl` [TRICHLOROACETIC ACID], the IC50 result (in assay [1]; in assay [2]; on Adenosine receptor A2a; at Substance-P receptor; at D(4) dopamine receptor) was “Not Active” each time.
As for `COc1ccc(CN2CCNCC2)c(OC)c1OC` [TRIMETAZIDINE], the IC50 result (in assay [1]; in assay [2]; on Adenosine receptor A2a; at Substance-P receptor; at D(4) dopamine receptor) was “Not Active” each time.
Consider `CC(=O)O[C@H]1C[C@@H]2CC[C@@H]3[C@H](CC[C@@]4(C)[C@H]3C[C@H]([N+]3(C)CCCCC3)[C@@H]4OC(C)=O)[C@@]2(C)C[C@@H]1N1CCCCC1.[Br-]` [VECURONIUM BROMIDE], for which the IC50 entry (in assay [1]; in assay [2]; at Adenosine receptor A2a; against Substance-P receptor; on D(4) dopamine receptor) was “Not Active” in each case.
Consider `COc1cc(C(=O)NS(=O)(=O)c2ccccc2C)ccc1Cc1cn(C)c2ccc(NC(=O)OC3CCCC3)cc12` [ZAFIRLUKAST], for which the IC50 entry is “Not Active” in assay [1]; 0.353 µM in assay [2] (read-out: IC50); “Not Active” on Adenosine receptor A2a; “Not Active” at Substance-P receptor; “Not Active” on D(4) dopamine receptor.
As for `Cc1cn([C@H]2C[C@H](N=[N+]=[N-])[C@@H](CO)O2)c(=O)[nH]c1=O` [ZIDOVUDINE], the IC50 entry (in assay [1]; in assay [2]; at Adenosine receptor A2a; on Substance-P receptor; at D(4) dopamine receptor) was “Not Active” throughout.
Regarding STANNOUS FLUORIDE, the IC50 result (in assay [1]; in assay [2]; at Adenosine receptor A2a; at Substance-P receptor; at D(4) dopamine receptor) was “Not Active” throughout. The Ki result (in assay [1]; in assay [2]; on Adenosine receptor A2a; on Substance-P receptor; at D(4) dopamine receptor) was “Not Active” throughout.
Turning to THIMEROSAL, the IC50 result (in assay [1]; in assay [2]; at Adenosine receptor A2a; against Substance-P receptor; on D(4) dopamine receptor) was “Not Active” throughout. For the same molecule, the Ki entry (in assay [1]; in assay [2]; on Adenosine receptor A2a; at Substance-P receptor; on D(4) dopamine receptor) was “Not Active” in each case.

The values are drawn from ChEMBL document CHEMBL1909046, “DrugMatrix in vitro pharmacology data”.
